According to the supplement of paper PMC8671470:
± gives the standard deviation of the averaged measurements.

Assays:
Settings in all cases: 72 h
KCL-22 [1] = system: KCL-22
How it was run: (§1)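 Each of fifteen myeloid leukaemia cell lines was seeded in RPMI 1640 at a density titrated to its linear growth range. The cells were incubated for 72 h at 37 °C and 5% CO2 with compounds at five tenfold doses from 1 to 10,000 nM, in duplicate. After ATP luminescence was normalised to vehicle and to a positive control at 10 µM, four-parameter log-logistic curves were fitted. These curves gave the IC50.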

LAMA-84 [2] = system: LAMA-84
How it was run: as §1

K-562 [3] = system: K-562
How it was run: as §1

Mono-Mac-6 [4] = system: Mono-Mac-6
How it was run: as §1

MV4-11 [5] = system: MV4-11
How it was run: as §1

SHI-1 [6] = system: SHI-1
How it was run: as §1

BV-173 [7] = system: BV-173
How it was run: as §1

KG-1 [8] = system: KG-1
How it was run: as §1

MOLM-13 [9] = system: MOLM-13
How it was run: as §1

KU-812 [10] = system: KU-812
How it was run: as §1

NOMO-1 [11] = system: NOMO-1
How it was run: as §1

HEL [12] = system: HEL
How it was run: as §1

THP-1 [13] = system: THP-1
How it was run: as §1

HL-60 [14] = system: HL-60
How it was run: as §1

ML-2 [15] = system: ML-2
How it was run: as §1

[16] = system: myeloid leukemia patient primary cells Pat.9; experiment: area under dose-response curve (viability, 1 nM-10 uM) (fraction (0-1)); higher = more sensitive
Experimental: (§2)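 AUC (0–1, higher = more sensitive) of the 5-point dose–response (1 nM–10 µM, 72 h, CellTiter-Glo) in primary AML/CML patient mononuclear cells. 0.030103 is the floor for inactive compounds.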

[17] = system: myeloid leukemia patient primary cells Pat.2; experiment: as above
Experimental: as §2

[18] = system: myeloid leukemia patient primary cells Pat.3; experiment: as above
Experimental: as §2

[19] = system: myeloid leukemia patient primary cells Pat.7; experiment: as above
Experimental: as §2

[20] = system: myeloid leukemia patient primary cells Pat.12; experiment: as above
Experimental: as §2

[21] = system: myeloid leukemia patient primary cells Pat.4; experiment: as above
Experimental: as §2

[22] = system: myeloid leukemia patient primary cells Pat.15; experiment: as above
Experimental: as §2

[23] = system: myeloid leukemia patient primary cells Pat.5; experiment: as above
Experimental: as §2

[24] = system: myeloid leukemia patient primary cells Pat.10; experiment: as above
Experimental: as §2

[25] = system: myeloid leukemia patient primary cells Pat.13; experiment: as above
Experimental: as §2

[26] = system: myeloid leukemia patient primary cells Pat.8; experiment: as above
Experimental: as §2

[27] = system: myeloid leukemia patient primary cells Pat.11; experiment: as above
Experimental: as §2

[28] = system: myeloid leukemia patient primary cells Pat.14; experiment: as above
Experimental: as §2

[29] = system: myeloid leukemia patient primary cells Pat.6; experiment: as above
Experimental: as §2

[30] = system: myeloid leukemia patient primary cells Pat.1; experiment: as above
Experimental: as §2

[31] = system: myeloid leukemia patient primary cells Pat.9; experiment: cell viability (% survival relative to DMSO control); higher = less cytotoxic
How it was run: (§3)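 Mononuclear cells from patients with AML or CML were thawed, purified on Ficoll and placed in RPMI 1640 with 10% FBS at 10,000 cells/well on 384-well plates. The plates came pre-printed with 70 compounds at five tenfold concentrations spanning 1–10,000 nM, in duplicate, and cells were exposed for 72 h. CellTiter-Glo gave viability, scaled between DMSO wells and wells with 10 μM proteasome inhibitor. Where reported, area under the curve was obtained from log-logistic fits with four parameters using the drc and PharmacoGx R packages.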

[32] = system: myeloid leukemia patient primary cells Pat.2; experiment: as above
How it was run: as §3

[33] = system: myeloid leukemia patient primary cells Pat.3; experiment: as above
How it was run: as §3

[34] = system: myeloid leukemia patient primary cells Pat.7; experiment: as above
How it was run: as §3

[35] = system: myeloid leukemia patient primary cells Pat.12; experiment: as above
How it was run: as §3

[36] = system: myeloid leukemia patient primary cells Pat.4; experiment: as above
How it was run: as §3

[37] = system: myeloid leukemia patient primary cells Pat.15; experiment: as above
How it was run: as §3

[38] = system: myeloid leukemia patient primary cells Pat.5; experiment: as above
How it was run: as §3

[39] = system: myeloid leukemia patient primary cells Pat.10; experiment: as above
How it was run: as §3

[40] = system: myeloid leukemia patient primary cells Pat.13; experiment: as above
How it was run: as §3

[41] = system: myeloid leukemia patient primary cells Pat.8; experiment: as above
How it was run: as §3

[42] = system: myeloid leukemia patient primary cells Pat.11; experiment: as above
How it was run: as §3

[43] = system: myeloid leukemia patient primary cells Pat.14; experiment: as above
How it was run: as §3

[44] = system: myeloid leukemia patient primary cells Pat.6; experiment: as above
How it was run: as §3

[45] = system: myeloid leukemia patient primary cells Pat.1; experiment: as above
How it was run: as §3

KCL-22 [46] = experiment: cell viability (% survival relative to DMSO control, bortezomib = 0%); higher = less cytotoxic
How it was run: (§4)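 Fifteen myeloid leukaemia cell lines (10 AML, 5 CML) were seeded at a density titrated to the linear growth range into 384-well plates pre-printed with compounds at 1, 10, 100, 1000 or 10000 nM in duplicate. Plates were incubated for 72 h at 37 °C with 5% CO2. Viability was then read by CellTiter-Glo luminescence. Each value is percent survival averaged over the duplicates, with vehicle set to 100% and a 10 µM positive control to 0%.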

LAMA-84 [47] = experiment: as above
How it was run: as §4

K-562 [48] = experiment: as above
How it was run: as §4

Mono-Mac-6 [49] = experiment: as above
How it was run: as §4

MV4-11 [50] = experiment: as above
How it was run: as §4

SHI-1 [51] = experiment: as above
How it was run: as §4

BV-173 [52] = experiment: as above
How it was run: as §4

KG-1 [53] = experiment: as above
How it was run: as §4

MOLM-13 [54] = experiment: as above
How it was run: as §4

KU-812 [55] = experiment: as above
How it was run: as §4

NOMO-1 [56] = experiment: as above
How it was run: as §4

HEL [57] = experiment: as above
How it was run: as §4

THP-1 [58] = experiment: as above
How it was run: as §4

HL-60 [59] = experiment: as above
How it was run: as §4

ML-2 [60] = experiment: as above
How it was run: as §4

HL-60 [61] = experiment: area under dose-response curve (viability, 1 nM-10 uM) (fraction (0-1)); higher = more sensitive
How it was run: (§5)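 HL-60 cells in RPMI 1640 with 10% FBS were rescreened against the full library on 384-well plates at five tenfold concentrations, 1–10,000 nM, in duplicate. Each screen was run with DMSO or 100 nM of one of three metabolic inhibitors, for 72 h at 37 °C, 5% CO2. Viability was read by CellTiter-Glo and normalised to DMSO and 10 μM proteasome-inhibitor wells. Where given, area under the curve came from four-parameter log-logistic fits (drc, PharmacoGx).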

HL-60 [62] = experiment: cell viability (% survival relative to DMSO control); higher = less cytotoxic
How it was run: as §5

CCOC(=O)c1cncn1[C@H](C)c1ccccc1 [Etomidate]
Settings | IC50 (cell viability) [µM]
BV-173 [7] | > 10
HEL [12] | > 10
HL-60 [14] | > 10
K-562 [3] | > 10
KCL-22 [1] | > 10
KG-1 [8] | > 10
KU-812 [10] | > 10
LAMA-84 [2] | > 10
ML-2 [15] | > 10
MOLM-13 [9] | > 10
MV4-11 [5] | > 10
Mono-Mac-6 [4] | > 10
NOMO-1 [11] | > 10
SHI-1 [6] | > 10
THP-1 [13] | > 10

CN(C)C(=O)n1nnnc1Cc1ccc(-c2ccccc2)cc1
Settings | area under dose-response curve
[16] | 0.766
[17] | 0.0497
[18] | 0.278
[19] | 0.331
[20] | 0.044
[21] | 0.115
[22] | 0.0943
[23] | 0.798
[24] | 0.298
[25] | 0.105
[26] | 0.132
[27] | 0.0778
[28] | 0.277
[29] | 0.0748
[30] | 0.124

cell viability [%]
Settings | 1 nM | 10 nM | 100 nM | 1000 nM | 10000 nM
[31] | 64 | 5.6 | 60.2 | 9.03 | 0.492
[32] | 97.7 | 78.6 | > 100 | 99.1 | 37.3
[33] | > 100 | 64.8 | 82.7 | 30.3 | 2.63
[34] | > 100 | 38.7 | 73.7 | 24.8 | 13.2
[35] | 94.7 | 91.7 | 90.7 | 93 | 41.2
[36] | 97.2 | 81 | 84.8 | > 100 | 2.63
[37] | 94.8 | 96 | 96.2 | 89.5 | 29.8
[38] | 60.8 | 1.18 | 63 | 1.33 | 2.24
[39] | 96.5 | 75.2 | > 100 | 20.7 | 15.5
[40] | 84.1 | 60.2 | 92.1 | 87.3 | 7.43
[41] | 99.4 | 97.5 | 71.9 | 85.5 | 4.49
[42] | > 100 | 87.4 | 91.7 | 93.6 | 22
[43] | 97.8 | 63.7 | 95.5 | 32 | 0.671
[44] | > 100 | 70.8 | 97.7 | > 100 | 21.8
[45] | 98.5 | 74.4 | 89.4 | 87.9 | 4.27

N#Cc1ccnc(N2C(=O)CC[C@H]2C(=O)N(c2cncc(F)c2)C(C(=O)NC2CC(F)(F)C2)c2ccccc2Cl)c1 (some centres undefined) [Ivosidenib]
cell viability [%]
Settings | 1 nM | 10 nM | 100 nM | 1000 nM | 10000 nM
BV-173 [52] | 93.2 | 95.1 | 95.8 | 104 | 92.2
HEL [57] | 89.5 | 104 | 114 | 105 | 121
HL-60 [59] | 112 | 100 | 116 | 95.3 | 92.1
K-562 [48] | 90.3 | 105 | 101 | 99.2 | 93.3
KCL-22 [46] | 92.3 | 95.3 | 110 | 99 | 93.3
KG-1 [53] | 92.4 | 105 | 106 | 98.2 | 78.2
KU-812 [55] | 92.7 | 102 | 107 | 106 | 87.4
LAMA-84 [47] | 112 | 101 | 110 | 107 | 81.4
ML-2 [60] | 107 | 85.4 | 105 | 98.1 | 92
MOLM-13 [54] | 111 | 103 | 109 | 96 | 95.1
MV4-11 [50] | 98 | 104 | 107 | 110 | 94.5
Mono-Mac-6 [49] | 97.8 | 88.9 | 108 | 90.2 | 81.5
NOMO-1 [56] | 97.8 | 95.6 | 103 | 104 | 90.8
SHI-1 [51] | 99.1 | 104 | 100 | 95.4 | 104
THP-1 [58] | 103 | 94.9 | 107 | 102 | 96

Settings | IC50 (cell viability) [µM]
BV-173 [7] | > 10
HEL [12] | > 10
HL-60 [14] | > 10
K-562 [3] | > 10
KCL-22 [1] | > 10
KG-1 [8] | > 10
KU-812 [10] | > 10
LAMA-84 [2] | > 10
ML-2 [15] | > 10
MOLM-13 [9] | > 10
MV4-11 [5] | > 10
Mono-Mac-6 [4] | > 10
NOMO-1 [11] | > 10
SHI-1 [6] | > 10
THP-1 [13] | > 10

CC(C)(O)CNc1nc(Nc2ccnc(C(F)(F)F)c2)nc(-c2cccc(C(F)(F)F)n2)n1 [AG-221]
HL-60 [61]
Settings | area under dose-response curve
co-treatment: AZD3965 100 nM | < 0.0301
co-treatment: DMSO vehicle | < 0.0301
co-treatment: GSK2194069 100 nM | < 0.0301
co-treatment: pictilisib 100 nM | < 0.0301

cell viability [%], HL-60 [62]
Settings | 0.001 µM | 0.01 µM | 0.1 µM | 1 µM | 10 µM
co-treatment: AZD3965 100 nM | 93.5 ± 4.8 | 105 ± 3 | 100 ± 5.2 | 98.6 ± 2.3 | 104 ± 2.8
co-treatment: DMSO vehicle | 96.6 ± 2.4 | 102 ± 7.7 | 101 ± 3.7 | 97.1 ± 1.5 | 103 ± 1.9
co-treatment: GSK2194069 100 nM | 85.8 ± 1.6 | 95.9 ± 8.7 | 100 ± 9.9 | 89 ± 5.2 | 94.2 ± 2.1
co-treatment: pictilisib 100 nM | 89.3 ± 3.3 | 104 ± 3 | 102 ± 8.6 | 94.9 ± 0.96 | 108 ± 5.6
